Test results reported in patent US20240360194A1, “New Peptides as Potent and Selective GIP Receptor Agonists” (Sanofi, priority 2021, published 2024).
Numbered stars: 1 amine (or outer) side, 2 acyl side, 3 side chain; on linkers, the order of the positions; unused ones are H or OH. Square brackets hold non-standard residues; d marks the D form. Side chains are listed from the residue outwards. Peptide text beside a SMILES is read from it. * marks the point of attachment. C18 diacid = O=C(O)CCCCCCCCCCCCCCCCC(=O)*; γGlu = O=C(O)[C@H](CCC(=O)[*:2])N[*:1]; AEEA = NCCOCCOCC(=O)O; Aib = CC(C)(N)C(=O)O

Key:
[1] = ThT assay for the assessment of physical stability (fibrillation); assay type: physicochemical; settings: ThT buffer system A: 100 mM phosphate buffer pH 7.4; 3 mg/ml, 37° C., shaking
Description: Low physical stability of a peptide solution may lead to amyloid fibril formation, which is observed as well-ordered, thread-like macromolecular structures in the sample, which eventually may lead to gel formation. Thioflavin T (ThT) is widely used to visualize and quantify the presence of misfolded protein aggregates [Biancalana et al., Biochim. Biophys. Acta 2010, 1804(7), 1405]. […] Enzymol. 1999, 309, 274]. The time course for fibril formation often follows the characteristic shape of a sigmoidal curve and can be separated into three regions: a lag phase, a fast growth phase, and a plateau phase. The typical fibril formation process starts with the lag phase in which the amount of partially folded peptide turned into fibrils is not significant enough to be detected. The lag-time corresponds to the time the critical mass of the nucleus is built. Afterwards, a drastic elongation phase follows, and fibril concentration increases rapidly. Investigations were carried out to determine fibrillation tendencies under stress conditions by shaking at 37° C. within Fluoroskan Ascent FL or Fluoroskan Ascent. For the tests in Fluoroskan Ascent (FL), 200 μl sample were placed into a 96-well mictrotiter plate PS, flat bottom, Greiner Fluotrac No. 655076. Plates were sealed with Scotch Tape (Qiagen). Samples were stressed by continuous cycles of 10 sec shaking at 960 rpm and 50 sec rest period at 37° C. The kinetic was monitored by measuring fluorescence intensity every 20 min. Peptides were diluted in a buffer system to a final concentration of 3 mg/ml. 20 μl of a 10.1 mM ThT solution in H2O were added to 2 ml of peptide solution to receive a final concentration of 100 μM ThT. For each sample eight replicates were tested. • ThT buffer system A) 100 mM phosphate buffer pH 7.4 • ThT buffer system B) 100 mM phosphate buffer pH 7.4, 2.7 mg/ml m-cresol Lag time in hours (h) in Thioflavin T (ThT) assay of peptide samples was determined in ThT buffer system A as described in Methods.

human GIP receptor = biological target: T1, human GIP receptor (Homo sapiens, UniProt P48546); assay: In vitro cellular cAMP assay for GIP receptor efficacy (human adipocytes); assay type: cell-based; settings: for EC50: read-out: hGIPR EC50; for Emax: read-out: hGIPR Emax
T1 construct: human adipocytes endogenously expressing the human GIP receptor; host or cells: human preadipocytes (Lonza) differentiated to adipocytes
T1 sequence (P48546 22-466): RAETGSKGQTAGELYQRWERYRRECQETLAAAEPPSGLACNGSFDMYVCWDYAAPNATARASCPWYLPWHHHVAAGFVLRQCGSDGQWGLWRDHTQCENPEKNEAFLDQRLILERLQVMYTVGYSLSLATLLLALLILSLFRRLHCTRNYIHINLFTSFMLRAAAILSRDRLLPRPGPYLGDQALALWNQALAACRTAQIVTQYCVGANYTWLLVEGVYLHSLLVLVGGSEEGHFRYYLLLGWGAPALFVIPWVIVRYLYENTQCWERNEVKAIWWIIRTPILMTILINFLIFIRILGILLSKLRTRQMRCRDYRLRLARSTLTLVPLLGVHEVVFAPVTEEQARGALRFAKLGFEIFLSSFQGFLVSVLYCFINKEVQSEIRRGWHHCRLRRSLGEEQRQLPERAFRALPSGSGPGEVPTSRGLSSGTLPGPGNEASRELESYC
Summary of the method: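 cAMP is read by HTRF (665/620 nm ratio, 1 h after reagents in lysis buffer) following 30 min compound exposure at room temperature. Cells are human preadipocyte-derived adipocytes, differentiated 6 days with insulin, dexamethasone, IBMX (200 μM), PPARγ agonist and L-thyroxine, seeded 5000 per well.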

[2] = biological target: T2, human GIP receptor (hGIPR) (Homo sapiens, UniProt P48546); assay: Binding assay, displacement of [125I]GIP from HEK-293 membranes over-expressing GIPR (SPA); settings: [125I]GIP displacement
T2 sequence (P48546 22-466): T1 sequence (P48546 22-466)
Summary of the method: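 Membranes from HEK-293 cells over-expressing human GIPR or GLP-1R, isolated by homogenising, sonicating and ultracentrifuging at 100000×g into HEPES/EDTA/NaCl buffer with protease inhibitors, were used for binding.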

SMILES | Increase in FI [1] | Lag time before increase [1] [h] | EC50 (human GIP receptor) [nM] | Emax (human GIP receptor) [%] | IC50 [2] [nM]
CC[C@H](C)[C@H](NC(=O)[C@H](CCCNC(=N)N)NC(=O)[C@H](CC(=O)O)NC(=O)[C@H](CCCCNC(=O)COCCOCCNC(=O)COCCOCCNC(=O)CC[C@H](NC(=O)CCCCCCCCCCCCCCCCC(=O)O)C(=O)O)NC(=O)C(C)(C)NC(=O)[C@@H](NC(=O)[C@H](CO)NC(=O)[C@H](CC(C)C)NC(=O)[C@H](CC(=O)O)NC(=O)[C@H](CO)NC(=O)[C@@H](NC(=O)[C@H](Cc1ccccc1)NC(=O)[C@@H](NC(=O)CNC(=O)[C@H](CCC(=O)O)NC(=O)C(C)(C)NC(=O)[C@@H](N)Cc1ccc(O)cc1)[C@@H](C)O)[C@@H](C)CC)[C@@H](C)CC)C(=O)N[C@@H](Cc1c[nH]cn1)C(=O)N[C@@H](CCC(N)=O)C(=O)NC(C)(C)C(=O)N[C@@H](CCC(=O)O)C(=O)N[C@@H](Cc1ccccc1)C(=O)N[C@H](C(=O)N[C@@H](CCC(=O)O)C(=O)N[C@@H](Cc1c[nH]c2ccccc12)C(=O)N[C@@H](CC(C)C)C(=O)N[C@@H](CC(C)C)C(=O)N[C@@H](C)C(=O)N[C@@H](CCC(N)=O)C(=O)N[C@@H](CCC(=O)O)C(=O)NCC(N)=O)[C@@H](C)CC [SEQ ID NO: 12, H2N-Y-Aib-E-G-T-F-I-S-D-L-S-I-Aib-K[{AEEA}2-gGlu-C18OH]-D-R-I-H-Q-Aib-E-F-I-E-W-L-L-A-Q-E-G-NH2] | no | >45 | 0.5 | 112 | 0.5
CC[C@H](C)[C@H](NC(=O)[C@H](Cc1ccccc1)NC(=O)[C@H](CCC(=O)O)NC(=O)[C@H](CCC(=O)O)NC(=O)[C@H](CCC(N)=O)NC(=O)[C@H](Cc1c[nH]cn1)NC(=O)[C@@H](NC(=O)[C@H](CCCNC(=N)N)NC(=O)[C@H](CC(=O)O)NC(=O)[C@H](CCCCNC(=O)COCCOCCNC(=O)COCCOCCNC(=O)CC[C@H](NC(=O)CCCCCCCCCCCCCCCCC(=O)O)C(=O)O)NC(=O)C(C)(C)NC(=O)[C@@H](NC(=O)[C@H](CO)NC(=O)[C@H](CC(C)C)NC(=O)[C@H](CC(=O)O)NC(=O)[C@H](CO)NC(=O)[C@@H](NC(=O)[C@@](C)(CC)NC(=O)[C@@H](NC(=O)CNC(=O)[C@H](CCC(=O)O)NC(=O)C(C)(C)NC(=O)[C@@H](N)Cc1ccc(O)cc1)[C@@H](C)O)[C@@H](C)CC)[C@@H](C)CC)[C@@H](C)CC)C(=O)N[C@@H](CCC(=O)O)C(=O)N[C@@H](Cc1c[nH]c2ccccc12)C(=O)N[C@@H](CC(C)C)C(=O)N[C@@H](CC(C)C)C(=O)N[C@@H](C)C(=O)N[C@@H](CCC(N)=O)C(=O)N[C@@H](CCCNC(=N)N)C(=O)NCC(N)=O [SEQ ID NO: 15, H2N-Y-Aib-E-G-T-Iva-I-S-D-L-S-I-Aib-K[{AEEA}2-gGlu-C18OH]-D-R-I-H-Q-E-E-F-I-E-W-L-L-A-Q-R-G-NH2] | no | >45 | 0.8 | 109 | 0.2
CC[C@H](C)[C@H](NC(=O)[C@H](CCC(=O)O)NC(=O)[C@H](CCC(=O)O)NC(=O)[C@H](CCCCNC(=O)COCCOCCNC(=O)COCCOCCNC(=O)CC[C@H](NC(=O)CCCCCCCCCCCCCCCCC(=O)O)C(=O)O)NC(=O)C(C)(C)NC(=O)[C@@H](NC(=O)[C@H](CO)NC(=O)[C@H](CC(C)C)NC(=O)[C@H](CC(=O)O)NC(=O)[C@H](CO)NC(=O)[C@@H](NC(=O)[C@H](Cc1ccccc1)NC(=O)[C@@H](NC(=O)CNC(=O)[C@H](CCC(=O)O)NC(=O)C(C)(C)NC(=O)[C@@H](N)Cc1ccc(O)cc1)[C@@H](C)O)[C@@H](C)CC)[C@@H](C)CC)C(=O)N[C@@H](Cc1c[nH]cn1)C(=O)N[C@@H](CCC(N)=O)C(=O)NC(C)(C)C(=O)N[C@@H](CCC(=O)O)C(=O)N[C@@H](Cc1ccccc1)C(=O)N[C@H](C(=O)N[C@@H](CCC(=O)O)C(=O)N[C@@H](Cc1c[nH]c2ccccc12)C(=O)N[C@@H](CC(C)C)C(=O)N[C@@H](CC(C)C)C(=O)N[C@@H](C)C(=O)N[C@@H](CCC(N)=O)C(=O)NCC(=O)N1CCC[C@H]1C(=O)N[C@@H](CO)C(=O)N[C@@H](CO)C(=O)NCC(=O)N[C@@H](C)C(=O)N1CCC[C@H]1C(=O)N1CCC[C@H]1C(=O)N1CCC[C@H]1C(=O)N[C@@H](CO)C(N)=O)[C@@H](C)CC [SEQ ID NO: 19, H2N-Y-Aib-E-G-T-F-I-S-D-L-S-I-Aib-K[{AEEA}2-gGlu-C18OH]-E-E-I-H-Q-Aib-E-F-I-E-W-L-L-A-Q-G-P-S-S-G-A-P-P-P-S-NH2] (H-Y[Aib]EGTFISDLSI[Aib]K([AEEA-AEEA-γGlu-C18 diacid])EEIHQ[Aib]EFIEWLLAQGPSSGAPPPS-NH2) | no | >45 |  | 94 | 

Next, values leading:

Increase in FI [1] | Lag time before increase [1] [h] | EC50 (human GIP receptor) [nM] | Emax (human GIP receptor) [%] | IC50 [2] [nM] | SMILES
no | >45 | 2.4 | 134 | 1.5 | CC[C@H](C)[C@H](NC(=O)[C@H](Cc1ccccc1)NC(=O)[C@H](CCC(=O)O)NC(=O)[C@H](CCC(=O)O)NC(=O)[C@H](CCC(N)=O)NC(=O)[C@H](Cc1c[nH]cn1)NC(=O)[C@@H](NC(=O)[C@H](CCCNC(=N)N)NC(=O)[C@H](CC(=O)O)NC(=O)[C@H](CCCCNC(=O)COCCOCCNC(=O)COCCOCCNC(=O)CC[C@H](NC(=O)CCCCCCCCCCCCCCCCC(=O)O)C(=O)O)NC(=O)C(C)(C)NC(=O)[C@@H](NC(=O)[C@H](CO)NC(=O)[C@H](CC(C)C)NC(=O)[C@H](CC(=O)O)NC(=O)[C@H](CO)NC(=O)[C@@H](NC(=O)[C@H](Cc1ccccc1)NC(=O)[C@@H](NC(=O)CNC(=O)[C@H](CCC(=O)O)NC(=O)C(C)(C)NC(=O)[C@@H](N)Cc1ccc(O)cc1)[C@@H](C)O)[C@@H](C)CC)[C@@H](C)CC)[C@@H](C)CC)C(=O)N[C@@H](CCC(=O)O)C(=O)N[C@@H](Cc1c[nH]c2ccccc12)C(=O)N[C@@H](CC(C)C)C(=O)N[C@@H](CC(C)C)C(=O)N[C@@H](C)C(=O)N[C@@H](CCC(N)=O)C(=O)N[C@@H](CCCNC(=N)N)C(=O)NCC(N)=O [SEQ ID NO: 4, H2N-Y-Aib-E-G-T-F-I-S-D-L-S-I-Aib-K[{AEEA}2-gGlu-C18OH]-D-R-I-H-Q-E-E-F-I-E-W-L-L-A-Q-R-G-NH2]
no | >45 | 1 | 121 | 0.5 | CC[C@H](C)[C@H](NC(=O)[C@H](CCCNC(=N)N)NC(=O)[C@H](CC(=O)O)NC(=O)[C@H](CCCCNC(=O)COCCOCCNC(=O)COCCOCCNC(=O)CC[C@H](NC(=O)CCCCCCCCCCCCCCCCC(=O)O)C(=O)O)NC(=O)C(C)(C)NC(=O)[C@@H](NC(=O)[C@H](CO)NC(=O)[C@H](CC(C)C)NC(=O)[C@H](CC(=O)O)NC(=O)[C@H](CO)NC(=O)[C@@H](NC(=O)[C@H](Cc1ccccc1)NC(=O)[C@@H](NC(=O)CNC(=O)[C@H](CCC(=O)O)NC(=O)C(C)(C)NC(=O)[C@@H](N)Cc1ccc(O)cc1)[C@@H](C)O)[C@@H](C)CC)[C@@H](C)CC)C(=O)N[C@@H](Cc1c[nH]cn1)C(=O)N[C@@H](CCC(N)=O)C(=O)NC(C)(C)C(=O)N[C@@H](CCC(=O)O)C(=O)N[C@@H](Cc1ccccc1)C(=O)N[C@H](C(=O)N[C@@H](CCC(=O)O)C(=O)N[C@@H](Cc1c[nH]c2ccccc12)C(=O)N[C@@H](CC(C)C)C(=O)N[C@@H](CC(C)C)C(=O)N[C@@H](C)C(=O)N[C@@H](CCC(N)=O)C(=O)N[C@@H](CCCNC(=N)N)C(=O)NCC(N)=O)[C@@H](C)CC [SEQ ID NO: 6, H2N-Y-Aib-E-G-T-F-I-S-D-L-S-I-Aib-K[{AEEA}2-gGlu-C18OH]-D-R-I-H-Q-Aib-E-F-I-E-W-L-L-A-Q-R-G-NH2]
